Assay results as given in EP2969029B1, “USE OF COSMETICALLY OR DERMATOLOGICALLY SAFE SUBSTITUTED MICHAEL ACCEPTORS FOR THE PREVENTION, REDUCTION OR PROPHYLAXIS OF THE TYROSINASE ACTIVITY OF THE HUMAN SKIN AND/OR THE LIGHTENING OF THE HUMAN SKIN” (Beiersdorf AG, priority 2013, dated 2014).

Molecular target: T1, humane Tyrosinase (Homo sapiens, UniProt P14679)
T1 sequence (P14679 19-529): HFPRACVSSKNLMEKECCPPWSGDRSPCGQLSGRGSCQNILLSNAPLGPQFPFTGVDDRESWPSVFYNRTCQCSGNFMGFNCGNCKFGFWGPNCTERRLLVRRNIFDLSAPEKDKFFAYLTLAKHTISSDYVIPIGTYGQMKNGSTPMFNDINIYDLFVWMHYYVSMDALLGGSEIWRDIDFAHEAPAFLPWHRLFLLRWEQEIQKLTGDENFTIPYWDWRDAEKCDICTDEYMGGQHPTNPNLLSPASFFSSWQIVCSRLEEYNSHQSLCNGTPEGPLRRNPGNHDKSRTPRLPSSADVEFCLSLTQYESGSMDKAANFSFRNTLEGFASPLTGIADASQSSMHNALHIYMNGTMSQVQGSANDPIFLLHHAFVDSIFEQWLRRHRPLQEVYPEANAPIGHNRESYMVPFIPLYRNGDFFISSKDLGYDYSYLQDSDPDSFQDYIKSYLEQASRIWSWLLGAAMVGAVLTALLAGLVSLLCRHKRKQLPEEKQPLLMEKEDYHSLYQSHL
Experiment: Enzyme test: conversion of L-DOPA to L-dopaquinone by human tyrosinase, MBTH detection, absorption at 490 nm
Assay type: biochemical
Details: Inhibition der Tyrosinaseaktivität, substrate L-DOPA

**Q.** For `COc1ccc(C(=O)/C=C(\O)c2ccc(C(C)(C)C)cc2)cc1` [(Z)-3-(4-(tert-butyl)phenyl)-3-hydroxy-1-(4-methoxyphenyl)prop-2-en-1-on], which EC50 is on record?
**A.** The EC50 was 1550 µM.

**Q.** `C=COC(=O)C=Cc1ccccc1` [Vinyl cinnamat] was tested. Which EC50 did it give?
**A.** Its EC50 is 2610 µM.

**Q.** How did the EC50 turn out when `O=C(O)/C=C/c1cccs1` [(E)-3-(thiophen-2-yl)acrylsäure] was run?
**A.** The EC50 was 32 µM.

**Q.** How did the EC50 turn out when `C/C=C/C=C/C(=O)O` [Kaliumsorbat] was run?
**A.** The EC50 was 1530 µM.

**Q.** How did the EC50 turn out when `CCOC(=O)C=Cc1ccccc1` [Ethyl cinnamat] was run?
**A.** Its EC50 is 2590 µM.

**Q.** How did the EC50 turn out when `COc1ccc(C=CC(=O)OCCC(C)C)cc1` [Isoamyl p-Methoxycinnamat] was run?
**A.** Its EC50 is 358 µM.

**Q.** `O=C(O)/C=C/c1ccc(O)c(O)c1` [(E)-3-(3,4-dihydroxyphenyl)acrylsäure] was tested. Which EC50 did it give?
**A.** Its EC50 is 1370 µM.

**Q.** With `O=C(OCc1ccccc1)c1ccccc1` [Benzyl benzoat] as the compound, how does the EC50 read?
**A.** The EC50 was 998 µM.

**Q.** How did the EC50 turn out when `O=C(O)/C=C/c1ccco1` [(E)-3-(furan-2-yl)acrylsäure] was run?
**A.** The EC50 was 166 µM.

**Q.** For `CCCc1c[nH]c(=S)[nH]c1=O` [5-Propyl-2-thioxo-2,3-dihydropyrimidin-4(1H)-on], which EC50 is on record?
**A.** Its EC50 is 494 µM.

**Q.** How did the EC50 turn out when `CCCCCCOC(=O)c1ccccc1O` [Hexyl 2-hydroxybenzoat] was run?
**A.** Its EC50 is 4230 µM.

**Q.** How did the EC50 turn out when `O=C(/C=C/c1ccc(O)cc1)NCCc1c[nH]c2ccc(O)cc12` [(E)-N-(2-(5-hydroxy-1H-indol-3-yl)ethyl)-3-(4-hydroxyphenyl)acrylamid] was run?
**A.** Its EC50 is 515 µM.

**Q.** For `O=CC=Cc1ccccc1` [Zinnamaldehyd], which EC50 is on record?
**A.** The EC50 was 211 µM.

**Q.** For `C=CCOC(=O)C=Cc1ccccc1` [Allyl cinnamat], which EC50 is on record?
**A.** Its EC50 is 2340 µM.

**Q.** For `COC(=O)c1cc(O)ccc1O` [Methyl 2,5-Dihydroxybenzoat], which EC50 is on record?
**A.** The EC50 was 2450 µM.

**Q.** Which EC50 does the source give for `O=C(O)/C=C/c1ccncc1` [(E)-3-(pyridin-4-yl) acrylsäure] here?
**A.** Its EC50 is 697 µM.

**Q.** With `O=C(C=Cc1ccccc1)OCc1ccccc1` [Benzyl cinnamat] as the compound, how does the EC50 read?
**A.** The EC50 was 260 µM.

**Q.** With `O=C(O)/C=C/c1cccnc1` [(E)-3-(pyridin-3-yl)acrylsäure] as the compound, how does the EC50 read?
**A.** The EC50 was 634 µM.

**Q.** Which EC50 does the source give for `COc1cc(/C=C/C(=O)O)ccc1O` [trans-Ferulasäure] here?
**A.** The EC50 was 2210 µM.

**Q.** `O=C(O)/C=C/c1c[nH]c2ccccc12` [(E)-3-(1H-indol-3-yl)acrylsäure] was tested. Which EC50 did it give?
**A.** Its EC50 is 833 µM.

**Q.** With `CC1CCC(=CC(=O)O)CC1` (stereo not shown) [2-(4-Methyl-1-cyclohexyliden)essigsäure] as the compound, how does the EC50 read?
**A.** Its EC50 is 6540 µM.

**Q.** For `O=C(O)c1ccccc1` [Natrium Benzoat], which EC50 is on record?
**A.** Its EC50 is 1440 µM.

**Q.** Which EC50 does the source give for `O=C(OCc1ccccc1)c1ccccc1O` [Benzyl 2-hydroxybenzoat] here?
**A.** Its EC50 is 378 µM.

**Q.** How did the EC50 turn out when `COc1ccc(C(=O)O)c(O)c1` [2-Hydroxy-4-methoxy Benzoesäure] was run?
**A.** The EC50 was 2660 µM.

**Q.** Which EC50 does the source give for `O=C(OC1CCCCC1)c1ccccc1O` [Cyclohexyl 2-hydroxybenzoat] here?
**A.** The EC50 was 547 µM.
